Laboratory results: publication PMC12935787, “Clinical pharmacokinetics and pharmacometabolomics of Andrographis paniculata capsules: Bridging drug disposition and metabolic response to precision medicine” (Naunyn-Schmiedeberg's Archives of Pharmacology, 2025)
Like-named read-outs stand apart in the source and are kept apart here.

Test: Clinical pharmacokinetics, plasma LC-MS/MS after single oral dose of AP capsules
Assay type: in vivo, human (healthy volunteers)
Details: human, plasma; for concentration at 0 h / concentration at 0.5 h / concentration at 1 h / concentration at 1.5 h / concentration at 2 h / concentration at 2.5 h / concentration at 3 h / concentration at 3.5 h / concentration at 4 h / concentration at 5 h / concentration at 6 h / concentration at 8 h / concentration at 10 h / concentration at 12 h / concentration at 24 h: oral, 2000 mg, 2000 mg AP capsules; for concentration at 0.5 h: 0.50 h; for concentration at 1.5 h: 1.50 h; for concentration at 2.5 h: 2.50 h; for concentration at 3.5 h: 3.50 h
Procedure: The protocol was published (Tee et al. [2022]).
Seven calibrators ranging from 1, 2, 5,10, 20, 50, and 100 ng mL^−1 were prepared. Frozen plasma was thawed, vortexed-mixes, and processed via protein precipitation: 50 µL plasma plus 100 µL 0.01% ammonia in methanol were vortexed (20 s), centrifuged (14800 rpm, 5 min) and […] supernatant was transferred to 2 mL vials with inserts. LC–MS/MS injection volume: 10 µL. The separation used a Phenomenex Gemini-NX C18 column (150 × 2.1 mm, 5 μm) with 0.01% ammonia (A) and acetonitrile/methanol (1:1, B) as mobile phases (0.30 mL min^-1). The gradient program: 40% B (0 min), linear increase to 95% B (3 min), hold to 5 min, sharp decrease to 10% B (5.01 min), hold to 7 min, return to 40% B (7.01 min), and re-equilibration to 10 min. Mass detection employed an LCMS-8060NX triple quadrupole with heated ESI in negative mode, monitoring specific MRM transitions: andrographolide (349.3 → 331.2/287.1), 14-deoxyandrographolide (331.2 → 108.0/301.1), and neoandrographolide (479.1 → 317.4/161.1).
Pharmacokinetic parameters were determined from plasma samples (5 subjects, 15 time points) analyzed via LC–MS/MS (Shimadzu 8060NX). […] Specific MRM transitions for andrographolide, 14-deoxyandrographolide, and neoandrographolide in plasma samples of subjects are illustrated in Figure S3. […] The dose-dependent concentration–time curves, pharmacokinetics profiles (Fig. 2a, b and c) and comprehensive individual PK data (Table S4) provide a foundation for developing personalized AP dosing regimens, supporting its precision medicine potential.

[1] = S1, read-out: Plasma concentration
[2] = S2, read-out: Plasma concentration
[3] = S3, read-out: Plasma concentration
[4] = S4, read-out: Plasma concentration
[5] = S5, read-out: Plasma concentration
[6] = mean n=5, read-out: Mean concentration
[7] = 2000 mg AP capsules oral, fasting, n=5

`C=C1CC[C@@H]2[C@](C)(CO[C@@H]3O[C@H](CO)[C@@H](O)[C@H](O)[C@H]3O)CCC[C@@]2(C)[C@@H]1CCC1=CCOC1=O` [neoandrographolide] showed a concentration at 0 h [1] of 0 ng/mL, a concentration at 0.5 h [1] of 13.2 ng/mL and a concentration at 1 h [1] of 21.3 ng/mL. It also gave a concentration at 1.5 h [1] of 41.4 ng/mL, a concentration at 2 h [1] of 32 ng/mL and a concentration at 2.5 h [1] of 19.7 ng/mL. It also gave a concentration at 3 h [1] of 24.1 ng/mL, a concentration at 3.5 h [1] of 22.2 ng/mL and a concentration at 4 h [1] of 6.67 ng/mL. For the same molecule, the concentration at 5 h [1] was 11.3 ng/mL, the concentration at 6 h [1] was 4.57 ng/mL and the concentration at 8 h [1] was 0.97 ng/mL. The concentration at 10 h [1] was 0 ng/mL, the concentration at 12 h [1] was 0 ng/mL and the concentration at 24 h [1] was 0 ng/mL. The concentration at 0 h [2] was 0 ng/mL, the concentration at 0.5 h [2] was 0.77 ng/mL and the concentration at 1 h [2] was 45.3 ng/mL. The concentration at 1.5 h [2] was 43.7 ng/mL, the concentration at 2 h [2] was 28 ng/mL and the concentration at 2.5 h [2] was 21.7 ng/mL. The concentration at 3 h [2] was 36.5 ng/mL, the concentration at 3.5 h [2] was 15.1 ng/mL and the concentration at 4 h [2] was 12.8 ng/mL. For the same molecule, the concentration at 5 h [2] was 16.2 ng/mL, the concentration at 6 h [2] was 5.29 ng/mL and the concentration at 8 h [2] was 1.69 ng/mL. The concentration at 10 h [2] was 0 ng/mL, the concentration at 12 h [2] was 0 ng/mL and the concentration at 24 h [2] was 0 ng/mL. For the same molecule, the concentration at 0 h [3] was 0 ng/mL, the concentration at 0.5 h [3] was 82.9 ng/mL and the concentration at 1 h [3] was 75.6 ng/mL. The concentration at 1.5 h [3] was 50 ng/mL, the concentration at 2 h [3] was 24.3 ng/mL and the concentration at 2.5 h [3] was 13.1 ng/mL. For the same molecule, the concentration at 3 h [3] was 7.05 ng/mL, the concentration at 3.5 h [3] was 0 ng/mL and the concentration at 4 h [3] was 0 ng/mL. For the same molecule, the concentration at 5 h [3] was 0 ng/mL, the concentration at 6 h [3] was 0 ng/mL and the concentration at 8 h [3] was 0 ng/mL. The concentration at 10 h [3] was 0 ng/mL, the concentration at 12 h [3] was 0 ng/mL and the concentration at 24 h [3] was 0 ng/mL. It also gave a concentration at 0 h [4] of 0 ng/mL, a concentration at 0.5 h [4] of 1.9 ng/mL and a concentration at 1 h [4] of 41.1 ng/mL. The concentration at 1.5 h [4] was 109 ng/mL, the concentration at 2 h [4] was 78.2 ng/mL and the concentration at 2.5 h [4] was 53.9 ng/mL. The concentration at 3 h [4] was 43.9 ng/mL, the concentration at 3.5 h [4] was 33.5 ng/mL and the concentration at 4 h [4] was 21.9 ng/mL. It also gave a concentration at 5 h [4] of 20.6 ng/mL, a concentration at 6 h [4] of 11.9 ng/mL and a concentration at 8 h [4] of 2.08 ng/mL. The concentration at 10 h [4] was 0 ng/mL, the concentration at 12 h [4] was 0 ng/mL and the concentration at 24 h [4] was 0 ng/mL. The concentration at 0 h [5] was 0 ng/mL, the concentration at 0.5 h [5] was 15.4 ng/mL and the concentration at 1 h [5] was 27.1 ng/mL. For the same molecule, the concentration at 1.5 h [5] was 48 ng/mL, the concentration at 2 h [5] was 86.8 ng/mL and the concentration at 2.5 h [5] was 65.8 ng/mL. For the same molecule, the concentration at 3 h [5] was 59.5 ng/mL, the concentration at 3.5 h [5] was 31.1 ng/mL and the concentration at 4 h [5] was 18.5 ng/mL. For the same molecule, the concentration at 5 h [5] was 9.61 ng/mL, the concentration at 6 h [5] was 4.65 ng/mL and the concentration at 8 h [5] was 1.35 ng/mL. It also gave a concentration at 10 h [5] of 0 ng/mL, a concentration at 12 h [5] of 0 ng/mL and a concentration at 24 h [5] of 0 ng/mL. The concentration at 0 h [6] was 0 ng/mL, the concentration at 0.5 h [6] was 22.8 ng/mL and the concentration at 1 h [6] was 42.1 ng/mL. For the same molecule, the concentration at 1.5 h [6] was 58.5 ng/mL, the concentration at 2 h [6] was 49.9 ng/mL and the concentration at 2.5 h [6] was 34.9 ng/mL. It also gave a concentration at 3 h [6] of 34.2 ng/mL, a concentration at 3.5 h [6] of 20.4 ng/mL and a concentration at 4 h [6] of 12 ng/mL. The concentration at 5 h [6] was 11.5 ng/mL, the concentration at 6 h [6] was 5.28 ng/mL and the concentration at 8 h [6] was 1.22 ng/mL. For the same molecule, the concentration at 10 h [6] was 0 ng/mL, the concentration at 12 h [6] was 0 ng/mL and the concentration at 24 h [6] was 0 ng/mL. The AUC(0-inf) [7] was 163 ng·h/mL, the AUC(0-t) [7] was 161 ng·h/mL and the Cmax [7] was 58.5 ng/mL. For the same molecule, the half-life [7] was 55.8 min.
